Data reported in ChEMBL document CHEMBL1133495 (Bioorg Med Chem Lett, 2000).

Tests used:
[1] = target: Sodium-dependent dopamine transporter (Homo sapiens, UniProt Q01959); assay: Inhibition of [3H]dopamine uptake in HEK cells expressing human Dopamine transporter; assay type: cell-based, HEK293
[2] = target: Sodium-dependent serotonin transporter (Homo sapiens, UniProt P31645); assay: The compound was tested for inhibition of [3H]-5-hydroxy tryptamine uptake in HEK cells by expressing cDNA for human […]; assay type: cell-based, HEK293
[3] = target: Sodium-dependent noradrenaline transporter (Homo sapiens, UniProt P23975); assay: The compound was tested for inhibition of [3H]norepinephrine uptake in HEK cells by expressing cDNA for human norepinephrine transporter; assay type: cell-based, HEK293
[4] = target: Monoamine transporters; serotonin & dopamine (Homo sapiens) (UniProt P31645+Q01959); assay: Ratio of 5-hydroxy tryptamine and dopamine transporter inhibition; assay type: protein assay
Monoamine transporters; serotonin & dopamine (Homo sapiens), sequence (P31645 whole entry, looked up): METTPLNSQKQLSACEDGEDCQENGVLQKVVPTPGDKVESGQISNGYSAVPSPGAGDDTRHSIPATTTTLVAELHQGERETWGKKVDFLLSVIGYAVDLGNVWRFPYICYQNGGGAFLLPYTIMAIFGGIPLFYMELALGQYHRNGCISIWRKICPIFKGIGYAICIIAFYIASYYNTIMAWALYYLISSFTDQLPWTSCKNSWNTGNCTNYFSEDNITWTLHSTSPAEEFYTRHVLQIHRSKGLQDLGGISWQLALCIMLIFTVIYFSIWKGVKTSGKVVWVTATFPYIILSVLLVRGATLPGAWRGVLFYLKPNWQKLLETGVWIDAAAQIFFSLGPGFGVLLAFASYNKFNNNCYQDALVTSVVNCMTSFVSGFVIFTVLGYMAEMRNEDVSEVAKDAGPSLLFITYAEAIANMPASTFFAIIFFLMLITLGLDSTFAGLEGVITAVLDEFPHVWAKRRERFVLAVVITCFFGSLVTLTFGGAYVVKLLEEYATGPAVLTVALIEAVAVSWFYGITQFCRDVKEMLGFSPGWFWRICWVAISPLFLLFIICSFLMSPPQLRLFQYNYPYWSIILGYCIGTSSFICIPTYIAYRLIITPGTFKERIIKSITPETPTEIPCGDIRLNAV
Monoamine transporters; serotonin & dopamine (Homo sapiens), sequence (Q01959 whole entry, looked up): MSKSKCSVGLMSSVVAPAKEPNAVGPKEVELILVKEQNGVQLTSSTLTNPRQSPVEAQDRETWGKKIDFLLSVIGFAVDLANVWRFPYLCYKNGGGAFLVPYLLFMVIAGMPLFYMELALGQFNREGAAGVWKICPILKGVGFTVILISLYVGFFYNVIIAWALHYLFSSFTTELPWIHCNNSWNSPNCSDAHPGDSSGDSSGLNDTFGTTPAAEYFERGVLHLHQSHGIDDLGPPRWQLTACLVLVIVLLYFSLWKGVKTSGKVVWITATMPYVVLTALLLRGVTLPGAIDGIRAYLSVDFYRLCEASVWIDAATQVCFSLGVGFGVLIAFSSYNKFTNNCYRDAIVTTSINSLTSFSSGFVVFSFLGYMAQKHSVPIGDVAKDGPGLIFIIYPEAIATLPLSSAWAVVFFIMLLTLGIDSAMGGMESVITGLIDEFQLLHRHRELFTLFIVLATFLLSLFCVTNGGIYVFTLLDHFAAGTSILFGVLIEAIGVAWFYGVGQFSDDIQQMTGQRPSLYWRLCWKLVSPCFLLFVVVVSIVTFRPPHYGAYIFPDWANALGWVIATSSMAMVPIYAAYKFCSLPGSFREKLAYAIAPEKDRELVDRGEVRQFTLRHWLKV

Sodium-dependent serotonin transporter, sequence (P31645 whole entry): as the sequence (P31645 whole entry, looked up) above
Sodium-dependent dopamine transporter, sequence (Q01959 whole entry): as the sequence (Q01959 whole entry, looked up) above
Sodium-dependent noradrenaline transporter, sequence (P23975 whole entry): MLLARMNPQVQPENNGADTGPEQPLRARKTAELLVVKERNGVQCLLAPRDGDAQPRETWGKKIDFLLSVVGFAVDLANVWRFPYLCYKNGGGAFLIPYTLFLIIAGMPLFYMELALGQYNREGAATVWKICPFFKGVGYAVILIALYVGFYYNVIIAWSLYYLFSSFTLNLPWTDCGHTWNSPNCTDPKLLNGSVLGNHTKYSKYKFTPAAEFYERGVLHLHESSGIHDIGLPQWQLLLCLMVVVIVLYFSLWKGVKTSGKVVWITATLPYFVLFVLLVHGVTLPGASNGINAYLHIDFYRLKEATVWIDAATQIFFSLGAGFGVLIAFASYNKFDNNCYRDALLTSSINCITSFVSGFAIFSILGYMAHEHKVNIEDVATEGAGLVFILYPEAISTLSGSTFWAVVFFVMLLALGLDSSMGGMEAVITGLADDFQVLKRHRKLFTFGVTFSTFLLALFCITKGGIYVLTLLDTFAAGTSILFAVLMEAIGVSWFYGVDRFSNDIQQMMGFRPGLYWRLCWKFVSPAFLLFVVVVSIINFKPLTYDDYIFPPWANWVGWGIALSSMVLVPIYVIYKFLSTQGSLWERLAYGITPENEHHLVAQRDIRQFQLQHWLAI

Structure (SMILES)	IC50 [1]	IC50 [2]	IC50 [3]	Ratio [4]
C=C1CN2C3CC[C@@H]2C[C@H](c2ccc(C)cc2)C13	67 nM	33 nM	2.2 nM	0.49
O=C1CN2C3CC[C@@H]2C[C@H](c2ccc(F)cc2)C13	3320 nM	251 nM	620 nM	0.076
CCC[C@@]1(O)CN2C3CC[C@@H]2C[C@H](c2ccc(C)cc2)C31	373 nM	41 nM	18 nM	0.11
Cc1ccc([C@H]2C[C@H]3CCC4C2[C@@](O)(c2ccccc2)CN43)cc1		7.9 nM	11 nM	
Cc1ccc([C@H]2C[C@H]3CCC4C2[C@](C)(O)CN43)cc1	390 nM	147 nM	296 nM	0.38
Cc1ccc([C@H]2C[C@H]3CCC4C2[C@@](O)(c2ccc(Cl)cc2)CN43)cc1	44 nM	13 nM	23 nM	0.3
CCCC1C2C3CCN2[C@H](C3)C[C@@H]1c1ccc(C)cc1 (stereo partly drawn)	570 nM		109 nM	
Cc1ccc([C@H]2C[C@H]3CCC4C2C(=O)CN43)cc1	538 nM	68 nM	110 nM	0.13
